Assay results reported in patent US11058707B2, “Methods for treating ischemic heart disease by targeting TRPV4” (Northeast Ohio Medical University, priority 2018, dated 2021).

What was measured:
[1] = system: human ventricular fibroblasts; test: TGF-b1-induced differentiation of human ventricular fibroblasts to myofibroblasts (immunofluorescence, α-SMA); format: cell-based; conditions: AB1+TGFβ1 vs TGFβ1; immunofluorescence actin/α-SMA/DAPI (FIG. 5A-5C)
[2] = system: WT mice subjected to MI; test: Myocardial infarction (LAD ligation) in WT mice treated orally with TRPV4 antagonist; echocardiography and histology; format: in vivo
Protocol: WT mice were subjected to MI by ligating LAD. MI mice were then given orally a specific TRPV4 antagonist, GSK2193874 (GSK2) (10 mg/Kg/day) or vehicle (0.01% DMSO/water).
Orally active TRPV4 antagonist GSK2193874 was given immediately after MI surgery and followed for 5 weeks.

[3] = given immediately after MI surgery, followed for 5 weeks, vs WT or vehicle treated mice

Structure (SMILES)	TGF-b1-induced differentiation of human ventricular fibroblasts [1]	cardiac fibrosis (Masson's trichrome staining) at the infarct zone and remote zone ([2]; GSK2 treated-MI hearts vs Vehicle treated-MI hearts (FIG. 16))	ejection fraction [2, 3]	fractional shortening [2, 3]	cardiac function: ejection fraction ([2]; post-MI WT mice, 10 mg/Kg/day orally vs vehicle (0.01% DMSO/water), echocardiography (FIG. 11A))	cardiac function: fractional shortening ([2]; post-MI WT mice, 10 mg/Kg/day orally vs vehicle (0.01% DMSO/water), echocardiography (FIG. 11B))
CC(C)NCCN(C(C)C)S(=O)(=O)c1ccc(Cl)cc1Cl [AB159908, 2,4-dichloro-N-isopropyl-N-(2-isopropylaminoethyl)benzenesulfonamide]	attenuation					
O=C(NC1(c2ccccc2)CC1)c1c(CN2CCC(N3CCCCC3)CC2)c(-c2cccc(C(F)(F)F)c2)nc2cc(Br)ccc12 [GSK2193874, 3-([1,4′-bipiperidin]-1′-ylmethyl)-7-bromo-N-(1-phenylcyclopropyl)-2-[3-(trifluoromethyl)phenyl]-4-quinolinecarboxamide]		significantly reduced	preserved	preserved	preserved	preserved
